Molecular target: sirtuin 6 (SIRT6) (Homo sapiens, UniProt Q8N6T7)
Assay: Fluor de Lys deacetylation assay
Type: biochemical

Sequence of sirtuin 6 (SIRT6) (Q8N6T7 2-355): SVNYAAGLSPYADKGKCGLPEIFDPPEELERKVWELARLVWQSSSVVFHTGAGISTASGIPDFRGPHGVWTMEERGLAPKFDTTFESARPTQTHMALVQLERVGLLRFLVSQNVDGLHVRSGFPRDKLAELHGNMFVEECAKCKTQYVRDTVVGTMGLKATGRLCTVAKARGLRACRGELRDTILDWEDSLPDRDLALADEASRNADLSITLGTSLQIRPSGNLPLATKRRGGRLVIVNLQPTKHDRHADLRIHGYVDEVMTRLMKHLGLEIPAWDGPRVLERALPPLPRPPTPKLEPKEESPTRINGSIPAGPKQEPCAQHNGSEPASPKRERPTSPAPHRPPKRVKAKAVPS

MDL-801-E1 was tested, and the “Fluor de Lys deacetylation assay (about 4-fold activation)” value was ~ 4 fold.

Reference: publication PMC8148055 (Acta Pharmaceutica Sinica. B, 2020)
